# In US11447504B2, “Macrocyclic chlorine substituted indole derivatives” (Bayer Aktiengesellschaft, priority 2017, dated 2022):
# Where a name gives a salt, the structure may show the parent alone. Read-outs that look alike come from different tables or passages of the source.
# Key:
# SUDHL5 [1] = test: Induction of cytotoxicity (Assay 6), SUDHL5; conditions: read-out: Cytotox SUDHL5 IC50 (median); SUDHL5 cells, 5 hours, CellTiter-Glo
# SUDHL5 [2] = test: Induction of caspase-3/7 activity (Assay 4), SUDHL5; assay type: cell-based; conditions: SUDHL5 cells
# How it was run: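 DLBCL cells treated with compounds for 3 hours at 37° C. Caspase-3/7 activity measured by Caspase-Glo 3/7 luminescence, with medium-only background subtracted.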
# SUDHL10 [3] = test: Induction of cytotoxicity (Assay 6), SUDHL10; conditions: read-out: Cytotox SUDHL10 IC50 (median); SUDHL10 cells, 5 hours, CellTiter-Glo
# SUDHL10 [4] = test: Induction of caspase-3/7 activity (Assay 4), SUDHL10; assay type: cell-based; conditions: SUDHL10 cells, 3 hours, Caspase-Glo 3/7; read-out: Caspase SUDHL10 EC50 (median)
# How it was run: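 Luminescent Caspase-Glo 3/7 read-out after a 3 h, 37 °C compound exposure of the DLBCL line SUDHL10. Values are background-corrected using medium-only wells.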
# MCL-1 [5] = molecular target: T1, MCL-1 (Homo sapiens (Human), UniProt Q07820, K194A/K197A/R201A); test: Protein-protein interaction assay MCL-1/Noxa BH3 peptide (MCL-1 Assay, TR-FRET); assay type: binding; conditions: read-out: MCL-1 Assay IC50 (median)
# T1 sequence (Q07820 whole entry K194A/K197A/R201A, looked up): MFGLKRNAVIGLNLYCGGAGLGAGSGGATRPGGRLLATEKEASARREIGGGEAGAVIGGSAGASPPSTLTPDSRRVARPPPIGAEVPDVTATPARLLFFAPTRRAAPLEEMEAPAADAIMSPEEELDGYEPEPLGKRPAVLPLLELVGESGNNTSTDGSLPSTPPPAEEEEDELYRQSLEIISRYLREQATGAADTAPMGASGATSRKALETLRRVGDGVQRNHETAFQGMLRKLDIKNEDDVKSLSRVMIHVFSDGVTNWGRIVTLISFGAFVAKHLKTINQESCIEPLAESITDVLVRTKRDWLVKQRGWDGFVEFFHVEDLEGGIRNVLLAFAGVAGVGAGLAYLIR
# SUDHL5 [6] = test: Antiproliferation assay 7, SUDHL5; assay type: cell-based; conditions: SUDHL5 cells, CellTiter-Glo, read-out: Antiproli SUDHL5 IC50 (median)
# How it was run: (§1)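 Plate cells in treatment and day 0 reference plates; read day 0 plate with CellTiter-Glo after 10 min; incubate treated plates 72 h at 37° C; read them identically.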
# BCL-2 = BCL-2 (Homo sapiens (Human), UniProt P10415); test: Protein-protein interaction assay BCL-2/Bad BH3 peptide (BCL-2 Assay, TR-FRET); assay type: binding; conditions: read-out: BCL-2 Assay IC50 (median)
# Sequence of BCL-2 (P10415 other isoform, or with tags, fused parts or gaps): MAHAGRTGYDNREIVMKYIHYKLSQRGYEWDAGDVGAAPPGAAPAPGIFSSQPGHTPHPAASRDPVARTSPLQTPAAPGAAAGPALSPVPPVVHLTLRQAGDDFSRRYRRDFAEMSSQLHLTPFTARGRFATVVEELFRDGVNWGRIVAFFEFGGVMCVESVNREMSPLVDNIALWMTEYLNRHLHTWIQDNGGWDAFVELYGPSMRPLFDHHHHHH
# Procedure: The dose-dependent inhibition by the compounds described in this invention of the interaction between BCL-2 and the BH3 domain of Bad (both human) was determined using a steady state binding competition assay with time-resolved fluorescence energy transfer (TR-FRET) readout.
# (§2) For that, 100-fold concentrated DMSO solutions were prepared by serial dilutions (1:3.4) of a 2 mM stock solution in a clear, 384-well microtiter plate (Greiner Bio-One, Frickenhausen, Germany). From there, 50 nl were transferred in a dark test plate (Greiner Bio-One, Frickenhausen, Germany). […] This was followed by a 10-minute incubation step at 22° C. for pre-equilibration of the putative complex between His-BCL-2 and the compounds.
# The mixture was incubated in the dark for one hour at 22° C. and then overnight at 4° C.
# (§3) The resulting data (ratio) were normalized, taking 0% inhibition as the mean value of control measurements (usually 32 data points) where all reagents were included. In this case 50 nl DMSO were used instead of compounds. […] IC50 values were determined by regression analysis based on a 4 parameter equation (minimum, maximum, IC50, Hill; Y=Max+(Min−Max)/(1+(X/IC50)^Hill) using the Screener Software (Genedata).
# BCL-XL = BCL-XL (Homo sapiens (Human), UniProt Q07817); test: Protein-protein interaction assay BCL-XL/Bad BH3 peptide (BCL-XL Assay, TR-FRET); assay type: binding; conditions: read-out: BCL-XL Assay IC50 (median)
# Sequence of BCL-XL (Q07817 other isoform, or with tags, fused parts or gaps): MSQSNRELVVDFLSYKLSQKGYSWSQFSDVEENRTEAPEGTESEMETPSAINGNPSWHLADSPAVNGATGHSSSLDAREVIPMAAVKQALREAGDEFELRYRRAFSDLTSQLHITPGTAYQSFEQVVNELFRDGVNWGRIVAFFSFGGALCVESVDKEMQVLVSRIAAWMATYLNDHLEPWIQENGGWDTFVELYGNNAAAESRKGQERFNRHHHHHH
# Procedure: Assay 2 Protein-Protein Interaction Assay: BCL-XL/Bad BH3 Peptide (BCL-XL Assay)
# The dose-dependent inhibition by the compounds described in this invention of the interaction between BCL-XL and the BH3 domain of Bad (both human) was determined using a steady state binding competition assay with time-resolved fluorescence energy transfer (TR-FRET) readout.
# as §2, with “His-BCL-XL” for “His-BCL-2”
# The mixture was incubated in the dark for one hour at 22° C. and then overnight at 4° C. The formation of BCL-XL/Bad complexes was determined by measuring the resonance energy transfer of the anti-His- Eu-cryptate antibody to the streptavidin-XL665 present in the reaction.
# as §3
# MV-4-11 = test: Antiproliferation assay 7, MV-4-11; assay type: cell-based; conditions: MV-4-11 cells, 72 hours, CellTiter-Glo; read-out: Antiproli MV-4-11 IC50 median
# How it was run: as §1
# SK-BR-3 = test: Antiproliferation assay 7, SK-BR-3; assay type: cell-based; conditions: SK-BR-3 cells, 72 hours, CellTiter-Glo; read-out: Antiproli SK-BR-3 IC50 median
# Procedure: Assessment of the Anti-Proliferative Effect of Compounds in Different Cell Lines
# The impact of compounds on the proliferation of different cell lines was assessed using the CellTiter-Glo® Luminescent Cell Viability reagent from Promega (G7573).
# In parallel, cells were plated in a reference (day 0) plate for time zero determination.
# Rim wells were excluded. The cells were incubated for 72 hours in a humidified incubator at 37° C. The day 0 plate was measured by adding 30 μL/well of CTG solution (CellTiter-Glo® Luminescent Cell Viability reagent, Promega G7573) to time zero wells in the reference plate followed by a 10 minutes incubation and luminescence reading at 0.1 ms. using the PHERAstar FS microplate reader (BMG Labtech).
# After 72 hours incubation, the treated plates were measured in the same way as the day 0 plate mentioned above.
# AMO-1 = test: Antiproliferation assay 7, AMO-1; assay type: cell-based; conditions: AMO-1 cells, CellTiter-Glo, read-out: Antiproli AMO-1 IC50 median
# How it was run: as §1
# SUDHL10 [7] = test: Antiproliferation assay 7, SUDHL10; assay type: cell-based; conditions: SUDHL10 cells, 72 hours, CellTiter-Glo; read-out: Antiproli SUDHL10 IC50 (median)
# How it was run: as §1
# MCL-1 [8] = molecular target: T1, MCL-1; test: Protein-compound interaction assay (SPR assay 8); assay type: binding; conditions: immobilized MBP-MCL-1, 25° C.; for Kd: read-out: KD (geo mean)
# Excerpt: Assay 8 Protein-Compound Interaction Assay (SPR Assay)
# The ability of the compounds described in this invention to bind to MCL-1 may be determined using surface plasmon resonance (SPR). This allows for the quantification of binding in terms of the equilibrium dissociation constant (KD [M]), as well as association and dissociation rate constants (kon [1/M 1/s] and koff [1/s], respectively). The measurements may be performed using Biacore® T200 or Biacore® S200 instruments (GE Healthcare).
# MBP-MCL-1 was diluted in 1×PBS-P+ (GE Healthcare) and injected on the activated chip surface. Subsequently, a solution of 1 M ethanolamine-HCl (GE Healthcare) was injected to block unreacted groups, resulting in approximately 400-2500 response units (RU) of immobilized protein. A reference surface was generated by treatment with NHS-EDC and ethanolamine-HCl.
# The double-referenced sensorgrams were fit to a simple reversible Langmuir 1:1 reaction mechanism as implemented in the Biacore® T200 and S200 evaluation software (T200 evaluation software version 2.0 and S200 evaluation software version 1.0, GE Healthcare).
# HMC-1-8 = test: Antiproliferation assay 7, HMC-1-8; assay type: cell-based; conditions: HMC-1-8 cells, CellTiter-Glo, read-out: Antiproli HMC-1-8 IC50 median
# How it was run: as §1
# SUDHL10 [9] = test system: SUDHL10
# SUDHL5 [10] = test system: SUDHL5
# [11] = 3 hours, Caspase-Glo 3/7, read-out: Caspase SUDHL5 EC50 (median)
Molecule,IC50 (SUDHL5 [1]),EC50 (SUDHL5 [2]; [11]),IC50 (SUDHL10 [3]),EC50 (SUDHL10 [4]),IC50 (MCL-1 [5]),IC50 (SUDHL5 [6]; 72 hours),IC50 (AMO-1; 72 hours),Kd (MCL-1 [8]),IC50 (HMC-1-8; 72 hours),other results
"4-chloro-3-ethyl-1-[2-(morpholin-4-yl)ethyl]-7-[3-(naphthalen-1-yloxy)propyl]-1,10,11,12,13,15-hexahydropyrazolo[4′,3′:9,10][1,6]oxazacycloundecino[8,7,6-hi]indole-8-carboxylic acid-N-ethylethanamine Salt (Enantiomer 1) [Example 9]",0.29 µM,0.27 µM,0.34 µM,0.33 µM,0.00047 µM,0.37 µM,0.874 µM,0.0011 µM,–,IC50 (BCL-2): > 20 µM; IC50 (BCL-XL): > 20 µM; IC50 (MV-4-11): 0.823 µM; IC50 (SK-BR-3): 1.08 µM; IC50 (SUDHL10 [7]): 0.27 µM; koff (geo mean) (MCL-1 [8]): 0.0096 s⁻¹; kon (geo mean) (MCL-1 [8]): 8.7E6 1/M 1/s
"Cc1c2c(nn1C)N(C)CCCCCn1c(C(=O)O)c(CCCOc3cccc4ccccc34)c3ccc(Cl)c-2c31 (single isomer, unassigned) [Example 72, (+)-4-chloro-2,3,15-trimethyl-7-{3-[(naphthalen-1-yl)oxy]propyl}-10,11,12,13,14,15-hexahydro-2H-pyrazolo[4′,3′:4,5][1,6]diazacycloundecino[3,2,1-hi]indole-8-carboxylic acid]",0.88 µM,0.7 µM,1.6 µM,1.9 µM,0.00096 µM,–,1.7 µM,0.011 µM,–,"IC50 (SUDHL5 [6]; Homo sapiens, SU-DHL-5, 72 h): 1.2 µM; IC50 (HMC-1-8; 72 h): 19 µM; koff (MCL-1 [8]; read-out: koff (geo mean)): 0.016 s⁻¹; kon (MCL-1 [8]; read-out: kon (geo mean)): 1.4e+06 M⁻¹ s⁻¹"
"Cc1c2c(nn1C)CN(C)CCCCn1c(C(=O)O)c(CCCOc3cccc4cc(F)ccc34)c3ccc(Cl)c-2c31 (single isomer, unassigned; enantiomer 1) [Example 31, (+)-4-chloro-7-{3-[(6-fluoronaphthalen-1-yl)oxy]propyl}-2,3,14-trimethyl-10,11,12,13,14,15-hexahydro-2H-pyrazolo[3′,4′:8,9][1,6]diazacycloundecino[10,11,1-hi]indole-8-carboxylic acid-N-ethylethanamine Salt (Enantiomer 1)]",0.053 µM,0.055 µM,0.082 µM,0.065 µM,0.00071 µM,0.053 µM,0.174 µM,0.00043 µM,1.92 µM,IC50 (MV-4-11): 0.275 µM
"Cc1c2c(nn1CCCN1CCN(C)CC1)COCCCCn1c(C(=O)O)c(CCCOc3cccc4ccccc34)c3ccc(Cl)c-2c31 (single isomer, unassigned; enantiomer 1) [Example 49, (+)-4-chloro-3-methyl-2-[3-(4-methylpiperazin-1-yl)propyl]-7-{3-[(naphthalen-1-yl)oxy]propyl}-2,10,11,12,13,15-hexahydropyrazolo[4′,3′:9,10][1,6]oxazacycloundecino[8,7,6-hi]indole-8-carboxylic Acid (Enantiomer 1)]",0.66 µM,0.52 µM,0.62 µM,0.45 µM,0.00075 µM,0.48 µM,1.34 µM,0.0017 µM,3.06 µM,–
"Cc1c2c(nn1C)COCC1CC1Cn1c(C(=O)O)c(CCCOc3cccc4ccccc34)c3ccc(Cl)c-2c31 (single isomer, unassigned; stereoisomer 1) [Example 65, (9aS,10aR or 9aR, 10aS)-3-chloro-4,5-dimethyl-14-{3-[(naphthalen-1-yl)oxy]propyl}-5,7,9a, 10,10a, 11-hexahydro-9H-cyclopropa[3,4]pyrazolo[4′,3′:9,10][1,6]oxazacycloundecino-[8,7,6-hi]indole-13-carboxylic Acid—Stereoisomer 1]",0.41 µM,–,0.4 µM,0.57 µM,0.00092 µM,–,–,0.0036 µM,7.58 µM,"EC50 (SUDHL5 [2]; Homo sapiens, SU-DHL-5, 3 h, Caspase-Glo 3/7, read-out: Caspase SUDHL5 EC50 (median)): 0.41 µM; IC50 (AMO-1; Homo sapiens, AMO1, 72 h): 1.42 µM"
"Cc1nn(C)c2c1-c1cccc3c(CCCOc4cccc5ccccc45)c(C(=O)O)n(c13)CCCCN2Cc1ccccc1 [Example 69, (rac)-8-benzyl-9,11-dimethyl-1-[3-(1-naphthyloxy)propyl]-4,5,6,7,8,9-hexahydropyrazolo[4′,3′:4,5][1,6]diazecino[3,2,1-hi]indole-2-carboxylic Acid]",–,> 33 µM,–,22 µM,0.35 µM,14 µM,–,–,–,IC50 (SUDHL10 [9]): 32 µM; IC50 (SUDHL5 [10]): 21 µM; IC50 (SUDHL10 [7]): 6.3 µM
"(rac)-4-chloro-14-(2,2-difluoroethyl)-3-ethyl-7-{3-[(6-fluoronaphthalen-1-yl)oxy]propyl}-2-methyl-10,11,12,13,14,15-hexahydro-2H-pyrazolo[3′,4′:8,9][1,6]diazacycloundecino[10,11,1-hi]indole-8-carboxylic Acid [Example 62]",–,0.27 µM,–,–,0.0027 µM,–,–,–,–,IC50 (SUDHL5 [10]): 0.33 µM
